Assay results as given in patent US20260137677A1, “PROTACS USEFUL AGAINST THE MAIN PROTEASE SARS-COV-2” (Tocris Cookson Limited, priority 2022, published 2026).
Where two headings read alike, the source gives them in different places.

How the values were obtained:
[1] = molecular target: T1, recombinant SARS-CoV-2 main protease (Mpro) (Severe acute respiratory syndrome coronavirus 2, UniProt P0DTD1); test: biochemical; details: FRET assay, Mpro 50 nM, substrate 10 μM
T1 construct: the main protease (Mpro; also called 3CLpro) which has an essential role in processing the polyproteins

[2] = system: SARS-CoV-2 (SARS-CoV2/ZG/297-20) in Vero E6 cells; test: microbe, parasite or virus in culture; type: cell-based; details: for inhibition at 10 µM / inhibition at 50 µM: Severe acute respiratory syndrome coronavirus 2, Vero C1008, 72 h; for inhibition at 10 µM: read-out: Antiviral Activity 10 uM; for inhibition at 50 µM: read-out: Antiviral Activity 50 uM
[3] = system: SARS-CoV-2 (SARS-CoV2/ZG/297-20) in Vero E6 cells; test: Plaque reduction assay in Vero E6 cells; type: cell-based
[4] = Severe acute respiratory syndrome coronavirus 2, Vero C1008, Vero E6 infected with SARS-CoV-2 at an MOI of 0.05, read-out: EC50 in antiviral assay

SMILES	IC50 [1]	inhibition at 10 µM [2]	inhibition at 50 µM [2]	EC50 ([2]; Severe acute respiratory syndrome coronavirus 2, Vero C1008, read-out: EC50 in antiviral assay)	reduction of viable virus in plaque reduction assay (in words) [3]	EC50 [2, 4]
O=C1CCC(N2C(=O)c3cccc(OCCCCCCCCC(=O)Nc4cccn([C@@H](CC5CC5)C(=O)N[C@@H](C[C@@H]5CCNC5=O)C(=O)C(=O)NCc5ccccc5)c4=O)c3C2=O)C(=O)N1 (stereo partly drawn) [BT153, N-(1-((S)-1-(((S)-4-(benzylamino)-3,4-dioxo-1-((S)-2-oxopyrrolidin-3-yl)butan-2-yl)amino)-3-cyclopropyl-1-oxopropan-2-yl)-2-oxo-1,2-dihydropyridin-3-yl)-9-((2-(2,6-dioxopiperidin-3-yl)-1,3-dioxoisoindolin-4-yl)oxy)nonanamide]	< 0.1 µM	< 75%	< 75%	3.2 µM	efficient reduction of viable virus	
O=C1CCC(N2C(=O)c3cccc(OCCCCCCCCNC(=O)c4ccc5cncc(N6C(=O)NC7(CC(c8ccccc8Cl)C7)C6=O)c5c4)c3C2=O)C(=O)N1 (stereo not drawn) [Compound C10778N, 4-(2-(2-chlorophenyl)-6,8-dioxo-5,7-diazaspiro[3.4]octan-7-yl)-N-(8-((2-(2,6-dioxopiperidin-3-yl)-1,3-dioxoisoindolin-4-yl)oxy)octyl)isoquinoline-6-carboxamide]	< 0.1 µM	< 75%	> 75%		efficiently reduces viable virus	1.7 µM
O=C1CCC(N2C(=O)c3cccc(OCCNC(=O)c4ccc5cncc(N6C(=O)NC7(CC(c8ccccc8Cl)C7)C6=O)c5c4)c3C2=O)C(=O)N1 (stereo not drawn) [Compound C10778P, 4-(2-(2-chlorophenyl)-6,8-dioxo-5,7-diazaspiro[3.4]octan-7-yl)-N-(2-((2-(2,6-dioxopiperidin-3-yl)-1,3-dioxoisoindolin-4-yl)oxy)ethyl)isoquinoline-6-carboxamide]	< 0.1 µM	> 75%	> 75%			4.9 µM
O=C1CCC(N2C(=O)c3ccc(NCCCCCCNC(=O)c4ccc5cncc(N6C(=O)NC7(CC(c8ccccc8Cl)C7)C6=O)c5c4)cc3C2=O)C(=O)N1 (stereo not drawn) [Compound C10778Q, 4-(2-(2-chlorophenyl)-6,8-dioxo-5,7-diazaspiro[3.4]octan-7-yl)-N-(6-((2-(2,6-dioxopiperidin-3-yl)-1,3-dioxoisoindolin-5-yl)amino)hexyl)isoquinoline-6-carboxamide]	< 1 µM	< 0%	< 25%			
O=C(COc1ccc(C2CCC(=O)NC2=O)cc1)NCCCCCNC(=O)c1ccc2cncc(N3C(=O)NC4(CC(c5ccccc5Cl)C4)C3=O)c2c1 (stereo not drawn) [Compound C10778R, 4-(2-(2-chlorophenyl)-6,8-dioxo-5,7-diazaspiro[3.4]octan-7-yl)-N-(5-(2-(4-(2,6-dioxopiperidin-3-yl)phenoxy)acetamido)pentyl)isoquinoline-6-carboxamide]	< 0.1 µM	> 75%	> 75%			4.9 µM
O=C1CCC(N2C(=O)c3cccc(OCCOCCOCCOCCNC(=O)c4ccc5cncc(N6C(=O)NC7(CC(c8ccccc8Cl)C7)C6=O)c5c4)c3C2=O)C(=O)N1 (stereo not drawn) [Compound C10778S, 4-(2-(2-chlorophenyl)-6,8-dioxo-5,7-diazaspiro[3.4]octan-7-yl)-N-(2-(2-(2-(2-((2-(2,6-dioxopiperidin-3-yl)-1,3-dioxoisoindolin-4-yl)oxy)ethoxy)ethoxy)ethoxy)ethyl)isoquinoline-6-carboxamide]	< 0.1 µM	< 25%	> 75%			
O=C1CCC(N2C(=O)c3cccc(OCCCCCCCCNC(=O)c4ccc5c(N6C(=O)NC7(CC(c8ccccc8Cl)C7)C6=O)cncc5c4)c3C2=O)C(=O)N1 (stereo not drawn) [Compound C10778T, 4-(2-(2-chlorophenyl)-6,8-dioxo-5,7-diazaspiro[3.4]octan-7-yl)-N-(8-((2-(2,6-dioxopiperidin-3-yl)-1,3-dioxoisoindolin-4-yl)oxy)octyl)isoquinoline-7-carboxamide]	< 0.1 µM	< 0%	< 0%			
O=C1CCC(N2C(=O)c3cccc(OCCCCNC(=O)c4ccc5c(N6C(=O)NC7(CC(c8ccccc8Cl)C7)C6=O)cncc5c4)c3C2=O)C(=O)N1 (stereo not drawn) [Compound C10778U, 4-(2-(2-chlorophenyl)-6,8-dioxo-5,7-diazaspiro[3.4]octan-7-yl)-N-(4-((2-(2,6-dioxopiperidin-3-yl)-1,3-dioxoisoindolin-4-yl)oxy)butyl)isoquinoline-7-carboxamide]	< 0.1 µM	< 25%	< 25%			
O=C1CCC(N2C(=O)c3cccc(OCCNC(=O)c4ccc5c(N6C(=O)NC7(CC(c8ccccc8Cl)C7)C6=O)cncc5c4)c3C2=O)C(=O)N1 (stereo not drawn) [Compound C10778V, 4-(2-(2-chlorophenyl)-6,8-dioxo-5,7-diazaspiro[3.4]octan-7-yl)-N-(2-((2-(2,6-dioxopiperidin-3-yl)-1,3-dioxoisoindolin-4-yl)oxy)ethyl)isoquinoline-7-carboxamide]	< 0.1 µM	< 25%	< 25%			
O=C1CCC(N2C(=O)c3ccc(NCCCCCCNC(=O)c4ccc5c(N6C(=O)NC7(CC(c8ccccc8Cl)C7)C6=O)cncc5c4)cc3C2=O)C(=O)N1 (stereo not drawn) [Compound C10778W, 4-(2-(2-chlorophenyl)-6,8-dioxo-5,7-diazaspiro[3.4]octan-7-yl)-N-(6-((2-(2,6-dioxopiperidin-3-yl)-1,3-dioxoisoindolin-5-yl)amino)hexyl)isoquinoline-7-carboxamide]	< 1 µM	< 0%	< 0%			
O=C(COc1ccc(C2CCC(=O)NC2=O)cc1)NCCCCCNC(=O)c1ccc2c(N3C(=O)NC4(CC(c5ccccc5Cl)C4)C3=O)cncc2c1 (stereo not drawn) [Compound C10778X, 4-(2-(2-chlorophenyl)-6,8-dioxo-5,7-diazaspiro[3.4]octan-7-yl)-N-(5-(2-(4-(2,6-dioxopiperidin-3-yl)phenoxy)acetamido)pentyl)isoquinoline-7-carboxamide]	< 0.1 µM	< 0%	< 0%			
O=C1CCC(N2C(=O)c3cccc(OCCOCCOCCOCCNC(=O)c4ccc5c(N6C(=O)NC7(CC(c8ccccc8Cl)C7)C6=O)cncc5c4)c3C2=O)C(=O)N1 (stereo not drawn) [Compound C10778Y, 4-(2-(2-chlorophenyl)-6,8-dioxo-5,7-diazaspiro[3.4]octan-7-yl)-N-(2-(2-(2-(2-((2-(2,6-dioxopiperidin-3-yl)-1,3-dioxoisoindolin-4-yl)oxy)ethoxy)ethoxy)ethoxy)ethyl)isoquinoline-7-carboxamide]	< 0.1 µM	< 25%	< 50%			
O=C1CCC(N2C(=O)c3cccc(OCCCCNC(=O)c4ccc5cncc(N6C(=O)NC7(CC(c8ccccc8Cl)C7)C6=O)c5c4)c3C2=O)C(=O)N1 (stereo not drawn) [Compound C107780, 4-(2-(2-chlorophenyl)-6,8-dioxo-5,7-diazaspiro[3.4]octan-7-yl)-N-(4-((2-(2,6-dioxopiperidin-3-yl)-1,3-dioxoisoindolin-4-yl)oxy)butyl)isoquinoline-6-carboxamide]	< 0.1 µM	< 25%	> 75%			
O=C1CCC(N2C(=O)c3cccc(NCCCNC(=O)[C@@H](NC(=O)C(c4cccnc4)N(C(=O)c4ccco4)c4ccc5c(c4)oc4ccccc45)c4ccccc4)c3C2=O)C(=O)N1 (stereo partly drawn) [TS284F2]	< 10 µM	< 0%	< 0%			
O=C1CCC(N2C(=O)c3cccc(NCCCCCCNC(=O)[C@@H](NC(=O)C(c4cccnc4)N(C(=O)c4ccco4)c4ccc5c(c4)oc4ccccc45)c4ccccc4)c3C2=O)C(=O)N1 (stereo partly drawn) [TS296]	> 25 µM	< 0%	< 0%			
